# T1: CD37 cell surface receptor (Homo sapiens, UniProt P11049)
# T1 construct: Human PBMCs are isolated over LSM density gradients and incubated with unconjugated TRU-016; endogenous in cells; host or cells: human PBMCs, gated for CD19+ B lymphocytes
# T1 sequence (P11049 1-281): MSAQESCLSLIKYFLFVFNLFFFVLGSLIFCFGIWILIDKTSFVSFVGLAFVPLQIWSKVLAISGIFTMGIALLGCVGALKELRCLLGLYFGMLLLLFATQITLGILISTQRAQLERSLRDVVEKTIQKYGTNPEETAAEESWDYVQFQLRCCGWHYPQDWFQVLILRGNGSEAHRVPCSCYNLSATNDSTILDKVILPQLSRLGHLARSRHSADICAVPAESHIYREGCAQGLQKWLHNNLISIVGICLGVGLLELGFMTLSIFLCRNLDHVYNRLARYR
# B1: Kifu TRU-016: TRU-016 produced by CHO cells treated with 10 μM kifenunsine (antibody, chains of the INN, looked up, V domains shown)
# VH: EVQLVQSGAEVKKPGESLKISCKGSGYSFTGYNMNWVRQMPGKGLEWMGNIDPYYGGTTYNRKFKGQVTISADKSISTAYLQWSSLKASDTAMYYCARSVGPFDSWGQGTLVTVSS
# VL: EIVLTQSPATLSLSPGERATLSCRASENVYSYLAWYQQKPGQAPRLLIYFAKTLAEGIPARFSGSGSGTDFTLTISSLEPEDFAVYYCQHHSDNPWTFGQGTKVEIK
# modifications: altered glycosylation (kifunensine-treated CHO)
# notes: TRU-016 produced by CHO cells treated with 10 μM kifenunsine
# What was measured:
# [1] = tested on: CD16 (Fcγ RIII); experiment: Binding of SMIP bound on WIL2-S cells to soluble FcγR-MIg fusion (CD16), flow cytometry
# [2] = tested on: BJAB B cells; experiment: ADCC, 51Cr-labeled BJAB B cells with human PBMC effectors; assay type: cell-based; details: culture media containing 200 μM DMJ, 10 μM kifenunsine or 200 μM castanospermine
# Description: To determine the ADCC activity of purified TRU-016, labeled BJAB B cells were used as targets and human peripheral blood mononuclear cells (PBMC) as effector cells. BJAB B cells (10^7 cells) were labeled with 500 μCi/mL ^51Cr sodium chromate for 2 hours at 37° C. in IMDM/10% FBS. PBMCs were isolated from heparinized, human whole blood by fractionation over Lymphocyte Separation Media (LSM, ICN Biomedical) gradients. Reagent samples were added to RPMI media with 10% FBS and serial dilutions of each reagent were prepared. The ^51Cr labeled BJAB were added at 2×10^4 cells/well. The PBMCs were then added at 5×10^5 cells/well for a final ratio of 25:1 effectors (PBMC):targets (BJAB). Reactions were set up in quadruplicate wells of a 96 well plate. Reactions were allowed to proceed for 6 hours at 37° C. in 5% CO2 prior to harvesting and counting. CPM released was measured on a Packard TopCounNXT from 50 μl dried culture supernatant. Percent specific killing was calculated by subtracting (cpm [mean of quadruplicate samples] of sample−cpm spontaneous release)/(cpm maximal release−cpm spontaneous release)×100, and data were plotted as % specific killing versus TRU-016 concentration.
# [3] = tested on: Ramos cells; experiment: Ramos tumor model in nude mice; assay type: in vivo; details: for Median Survival Time: 200 μg i.v. on days 0, 2, 4, 6 and 8
# Description: Nude mice are administered 5×10^6 Ramos cells subcutaneously on day 0 and injected intravenously with 200 μg control human IgG or TRU-016 test protein produced by CHO cells treated with 200 μM DMJ, 10 μM kifenunsine or 200 μM castanospermine on days 0, 2, 4, 6, and 8. Mice typically develop tumors within 6 days and die shortly thereafter. Tumors are measured three times weekly with digital calipers and LabCat software, and tumor volume is calculated as […]. Body weight is also determined once a week.
# Mice are sacrificed when the tumor reaches 1500 mm^3 in size (1200 mm^3 on Fridays). Mice are also sacrificed if ulceration of a tumor occurs, the tumor inhibits the mobility of animal, or if weight loss equals or exceeds 20%.
# [4] = tested on: CD37-expressing Daudi cancer B-cell line; experiment: ADCC, 51Cr-labeled Daudi target cells with human PBL effector cells; assay type: cell-based; details: treated with CS over a range of 100 μM-800 μM final concentration
# Description: TRU-016 produced as described in Example 8 is incubated with the CD37-expressing Daudi cancer B-cell line in conjunction with primary human peripheral blood lymphocytes (PBL's) effector cells to assess ADCC activity.
# Daudi target cells (5×10^6) are added to a 15 ml conical tube and then centrifuged at 250×g for 5 minutes at 20° C. and the supernatant removed. The cell pellet is resuspended by the addition of 0.3 mCi Chromium-51 (^51Cr, GE Healthcare, CJ51). The cells are incubated for 75 minutes at 37° C. with 5% CO2, allowing the cells to incorporate the radioactive isotope. The cells are then washed three times to remove any unincorporated ^51 Cr. This is done by adding 10 mL of complete media—IMDM (Gibco) with 10% FBS (Gibco)—to the tube, centrifuging at 250×g for 5 minutes at 20° C. followed by removal of supernatant. The final resuspension is in 11.5 mL of complete media. TRU-016 is diluted in complete media, at concentrations that are able to generate maximal to background levels of cell lysis (500 ng/mL-0.005 ng/mL). These titrations are plated out, 50 μL/well, in a round bottom 96 well plate. The ^51Cr labeled target cells are added to the dose titrations of TRU-016 at 50 μL/well and the control wells (control media without TRU-016). PBL's are isolated from fresh heparinized whole blood by density gradient centrifugation using Lymphocyte Separation Media as per protocol (LSM, MP Biomedical, 50494/36427). […] The assay is incubated for 4.5-5 hours at 37° C., 5% CO2. The effector cells lyse the target cells relative to the TRU-016 concentration, releasing a proportional amount of ^51Cr into the assay supernatant. Following the incubation the plate is centrifuged at 250×g for 3 minutes at 20° C. A 25 μL volume of cell-free supernatant is removed from all wells to a scintillation plate (Perkin Elmer 6005185) and dried overnight. The amount of ^51Cr isotope in each well of the scintillation plate is measured using a Topcount plate reader (Perkin Elmer, C9904VO). The data are expressed as percent of specific release. Specific release is calculated as: (Sample value−Spontaneous value)/(Maximum value−Spontaneous value)*100% Spontaneous=amount of ^51Cr released from target cell only Maximum release=amount of ^51Cr released from targets treated with detergent lysing agent Background Control=amount of ^51Cr released from target cells+effector cells(No TRU-016)
# A dose response is generated and fit to a 4-parameter logistic curve using SoftMax Pro software (Molecular Devices, ver 5.0.1). Titrations of TRU-016 are utilized to create dose response curves of test and reference material for comparison. The EC50 values for the treated articles are compared to the untreated control (no CS) to determine the percent increase in ADCC activity.
# [5] = target: T1, CD37 cell surface receptor; experiment: TRU-016 binding to human PBMC B lymphocytes by two-color flow cytometry
# Description: Experiments may be performed to confirm that the binding specificity of the parent antibody to the CD37 cell surface receptor is preserved in TRU-016. Human PBMCs are isolated over LSM density gradients and incubated with unconjugated TRU-016 and PE-conjugated anti-human CD19. Cells are washed and incubated with 1:100 FITC GAH IgG (Fc specific) for 45 minutes on ice. Cells are washed and analyzed by two-color flow cytometry on a FACsCalibur instrument using Cell Quest software. Cells are gated for B lymphocytes or non-B lymphocytes by CD19 staining.
# [6] = tested on: CD16; experiment: CD16 assays on sera of mice administered TRU-016; assay type: binding; details: sera at 48, 72, 96 and 192 hours after administration of carbohydrate-modified TRU-016
# [7] = tested on: Ramos B cells; experiment: CDC, Ramos B cells with human serum, propidium iodide; assay type: cell-based; details: TRU-016 from CHO cells cultured with 200 μM DMJ, 10 μM kifenunsine or 200 μM castanospermine
# Description: To determine the CDC activity of TRU-016 purified protein produced according to Example 2, Ramos B cells were suspended in Iscoves (Gibco/Invitrogen, Grand Island, N.Y.) at 5×10^5 cells/well in 75 μl. TRU-016 (75 μl) were added to the cells at twice the concentrations indicated. Binding reactions were allowed to proceed for 45 minutes prior to centrifugation and washing in serum-free Iscoves. Cells were resuspended in Iscoves with human serum (containing complement) at various concentrations. The cells were incubated 60 minutes at 37° C. Cells were washed by centrifugation and resuspended in staining media with 0.5 μg/ml propidium iodide. Samples were incubated 15 minutes at room temperature in the dark prior to analysis by flow cytometry using a FACsCalibur and CellQuest software (Becton Dickinson).
# [8] = TRU-016 from CHO cells treated with 200 μM DMJ, 10 μM kifenunsine or 200 μM castanospermine
molecule,measurement,setting,value
"OC[C@H]1NC[C@@H](O)[C@@H](O)[C@@H]1O [DMJ, Deoxymannojirimycin]",CD16 binding of TRU-016 supernatant (mean fluorescence intensity),[1]; CHO cells cultured with modifier at 50 or 250 μM,increased
same,ADCC of TRU-016 purified protein (% specific killing),[2],improved
"O=C1N[C@@H]2[C@@H](O)[C@@H](O)[C@H](O)[C@@H](CO)N2C1=O [kifunensine, Kifunensine]",CD16 binding of TRU-016 supernatant (mean fluorescence intensity),"[1]; CHO cells cultured with kifunensine 0, 0.5, 1, 3, 5 or 10 μM",greatly increased
same,ADCC of TRU-016 purified protein (% specific killing),[2],improved
CS TRU-016: TRU-016 produced by CHO cells treated with 200 μM castanospermine,Median Survival Time,[3],13 days
TRU-016: [G28-1 scFv VH11S (SSC-P)H WCH2 WCH3] recombinant single chain protein (SMIP) that binds to the CD37 antigen; SEQ ID NO: 2,ADCC activity relative to untreated TRU-016,[4],significantly increased
same,TRU-016 concentration at saturation of FITC signal on B lymphocytes,[5]; CD19 positive gate,approximately 1 μg/mL
same,mean fluorescence intensity (MFI) at saturation,[5]; CD19 positive gate,~1000
same,staining of the non-B lymphocyte population,[5]; non-B lymphocyte gate,"detectable, but very low"
same,mean survival time,[3]; [8],increase mean survival time
same,tumor volume,[3]; [8],reduce tumor volume
same,CD16 binding activity of sera containing TRU-016,[6],retained its increased CD16 binding activity
same,CDC versus protein produced by untreated CHO cells,[7],similar
B1,Median Survival Time,[3],10 days

# Source: patent US7846434B2, “Materials and methods for improved immunoglycoproteins” (Trubion Pharmaceuticals, Inc., priority 2006, dated 2010)
